In ChEMBL document CHEMBL1201862, “PubChem BioAssay data set” (2004):
Active and inactive are the calls of the source.

Key:
[1] = system: BJ; test: cells; type: functional, cell-based, Homo sapiens; settings: Homo sapiens, BJ
[2] = target: Peroxisome proliferator-activated receptor gamma/Nuclear receptor coactivator 2 (Homo sapiens, UniProt P37231); type: functional;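 further: agonist potency for raising coactivator recruitment to the receptor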
[3] = system: BJ; test: BJ-TERT fibroblast viability loss – cell-based, RAS-independent, luminescence, dose response (AID 1933); type: functional; settings: Homo sapiens
[4] = Luminescence Cell-Based Dose Response HTS to Identify Inhibitors of 5'UTR Stem-Loop Driven Prion Protein mRNA Translation in H4 Neuroglioblastoma Cells. [Related pubchem assays: 1827 (Project Summary), 1813 (Primary HTS)]; type: functional
[5] = target: Paired box protein Pax-8 (Homo sapiens, UniProt Q06710); test: PAX8 transcriptional activity inhibition in RMG-I – RMG-I cells, luciferase, cherry-pick, dose response (AID 687027); type: functional, cell-based;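 further: luciferase reporter driven by Pax8 target thyroperoxidase promoter measured by SteadyGlo luminescence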
Chain of Paired box protein Pax-8 (Q06710 whole entry): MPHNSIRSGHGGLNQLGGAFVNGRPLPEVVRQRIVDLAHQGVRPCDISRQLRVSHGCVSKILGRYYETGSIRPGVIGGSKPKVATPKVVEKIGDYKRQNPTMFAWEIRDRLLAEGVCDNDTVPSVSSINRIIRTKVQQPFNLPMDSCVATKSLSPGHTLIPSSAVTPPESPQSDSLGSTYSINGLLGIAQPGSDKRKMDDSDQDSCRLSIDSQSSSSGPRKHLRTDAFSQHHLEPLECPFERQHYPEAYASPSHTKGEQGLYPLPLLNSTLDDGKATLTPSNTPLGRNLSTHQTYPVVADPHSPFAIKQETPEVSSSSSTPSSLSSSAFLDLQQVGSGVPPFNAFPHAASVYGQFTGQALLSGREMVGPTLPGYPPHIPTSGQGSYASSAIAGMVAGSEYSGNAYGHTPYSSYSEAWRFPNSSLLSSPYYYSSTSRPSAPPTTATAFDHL

[6] = alpha-synuclein stem-loop luciferase translation blockers – H4 neuroglioma cells, luminescence, confirmation (AID 1988); type: functional, cell-based
[7] = target: Cytochrome P450 3A4 (Homo sapiens, UniProt P08684);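 further: CYP3A4 tested as one member of a cytochrome P450 panel screen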
Chain of Cytochrome P450 3A4 (P08684 whole entry): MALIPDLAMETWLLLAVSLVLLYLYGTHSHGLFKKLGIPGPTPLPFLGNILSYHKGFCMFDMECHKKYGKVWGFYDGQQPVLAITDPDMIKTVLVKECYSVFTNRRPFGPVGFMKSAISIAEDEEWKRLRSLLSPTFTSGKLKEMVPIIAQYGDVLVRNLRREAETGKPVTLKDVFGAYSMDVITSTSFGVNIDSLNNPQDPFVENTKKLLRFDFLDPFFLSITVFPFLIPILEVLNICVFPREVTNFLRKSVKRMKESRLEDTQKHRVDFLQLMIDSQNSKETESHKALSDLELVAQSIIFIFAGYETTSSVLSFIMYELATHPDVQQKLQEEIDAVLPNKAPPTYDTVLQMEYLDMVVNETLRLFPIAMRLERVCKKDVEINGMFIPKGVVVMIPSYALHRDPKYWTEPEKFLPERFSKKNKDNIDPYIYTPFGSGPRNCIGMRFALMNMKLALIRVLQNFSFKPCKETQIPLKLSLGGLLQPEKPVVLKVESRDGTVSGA

[8] = target: Peroxisome proliferator-activated receptor gamma/Nuclear receptor coactivator 3 (Homo sapiens, UniProt P37231); type: functional;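 further: agonist potency for raising coactivator recruitment to the receptor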
[9] = DRD fibroblast viability loss – cell-based, non-viral oncogenic, luminescence, dose response (AID 1934); type: functional; settings: Homo sapiens
[10] = target: Peroxisome proliferator-activated receptor gamma/Nuclear receptor coactivator 1 (Homo sapiens, UniProt P37231); type: functional;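 further: agonist potency as compounds enhance coactivator SRC-1 recruitment to PPARgamma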
Chain of Peroxisome proliferator-activated receptor gamma/Nuclear receptor coactivator 1 (P37231 whole entry): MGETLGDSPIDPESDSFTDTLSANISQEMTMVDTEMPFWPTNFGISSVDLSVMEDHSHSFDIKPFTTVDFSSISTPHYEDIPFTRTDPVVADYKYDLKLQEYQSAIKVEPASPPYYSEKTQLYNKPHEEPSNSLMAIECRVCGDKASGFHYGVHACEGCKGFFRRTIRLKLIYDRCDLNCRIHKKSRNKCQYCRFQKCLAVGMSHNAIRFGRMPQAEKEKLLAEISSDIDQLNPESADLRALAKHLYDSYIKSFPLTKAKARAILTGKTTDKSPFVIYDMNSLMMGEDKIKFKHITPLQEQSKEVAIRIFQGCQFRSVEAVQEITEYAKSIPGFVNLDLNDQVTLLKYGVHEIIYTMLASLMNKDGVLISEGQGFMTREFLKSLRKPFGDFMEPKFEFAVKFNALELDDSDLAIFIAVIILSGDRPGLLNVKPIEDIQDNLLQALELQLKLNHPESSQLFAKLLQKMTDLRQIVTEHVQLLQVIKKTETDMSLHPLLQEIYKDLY
Chain of Peroxisome proliferator-activated receptor gamma/Nuclear receptor coactivator 1 (Q15788 whole entry, further chain): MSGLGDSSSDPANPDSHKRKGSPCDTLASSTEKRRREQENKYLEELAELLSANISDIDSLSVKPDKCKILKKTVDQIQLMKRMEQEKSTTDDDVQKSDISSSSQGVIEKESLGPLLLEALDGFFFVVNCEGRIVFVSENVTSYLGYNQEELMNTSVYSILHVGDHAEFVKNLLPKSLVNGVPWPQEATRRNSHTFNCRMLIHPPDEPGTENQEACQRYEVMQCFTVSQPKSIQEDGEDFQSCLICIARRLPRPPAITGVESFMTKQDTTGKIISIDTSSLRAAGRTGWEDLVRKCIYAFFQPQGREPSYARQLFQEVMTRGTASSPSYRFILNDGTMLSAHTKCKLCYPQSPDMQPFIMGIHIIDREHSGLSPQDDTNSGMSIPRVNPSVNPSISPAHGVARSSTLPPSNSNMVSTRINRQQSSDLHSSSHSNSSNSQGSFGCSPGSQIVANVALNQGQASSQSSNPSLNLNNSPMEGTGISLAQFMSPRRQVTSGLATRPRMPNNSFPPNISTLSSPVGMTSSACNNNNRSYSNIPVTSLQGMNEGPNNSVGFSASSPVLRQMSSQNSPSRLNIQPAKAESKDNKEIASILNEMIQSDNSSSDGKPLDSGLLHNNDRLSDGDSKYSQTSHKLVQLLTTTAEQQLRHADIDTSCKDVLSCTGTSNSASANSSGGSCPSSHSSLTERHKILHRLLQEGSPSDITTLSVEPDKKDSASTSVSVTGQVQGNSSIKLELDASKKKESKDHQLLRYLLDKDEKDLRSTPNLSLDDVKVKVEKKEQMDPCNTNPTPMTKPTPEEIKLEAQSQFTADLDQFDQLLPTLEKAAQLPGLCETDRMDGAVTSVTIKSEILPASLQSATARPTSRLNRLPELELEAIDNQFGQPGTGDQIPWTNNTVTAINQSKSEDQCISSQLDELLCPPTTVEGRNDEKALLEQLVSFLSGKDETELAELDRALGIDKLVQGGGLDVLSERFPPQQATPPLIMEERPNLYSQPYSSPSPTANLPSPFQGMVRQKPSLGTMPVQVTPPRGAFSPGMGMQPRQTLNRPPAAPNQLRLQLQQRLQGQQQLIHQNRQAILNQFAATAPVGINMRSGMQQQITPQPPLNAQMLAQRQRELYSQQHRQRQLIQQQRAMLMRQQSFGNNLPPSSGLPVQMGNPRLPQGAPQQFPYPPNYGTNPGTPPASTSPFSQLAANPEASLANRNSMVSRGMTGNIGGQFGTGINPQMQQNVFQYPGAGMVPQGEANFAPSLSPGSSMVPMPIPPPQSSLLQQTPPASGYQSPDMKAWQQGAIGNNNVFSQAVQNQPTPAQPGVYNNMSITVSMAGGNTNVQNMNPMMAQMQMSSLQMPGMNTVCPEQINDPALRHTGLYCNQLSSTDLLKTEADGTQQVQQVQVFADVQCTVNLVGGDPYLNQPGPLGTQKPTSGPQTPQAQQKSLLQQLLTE

[11] = system: BJ; test: growth inhibition of engineered Ras-driven BJ cells – cell-based, alamar blue fluorescence, cherrypicked samples, dose response (AID 2631); type: functional; settings: Homo sapiens;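 further: confirmatory dose-response assay in RAS-dependent BJ fibroblasts engineered with TERT, LT and ST, with cytotoxicity read by fluorescence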
[12] = luciferase reporter signal suppression in cells – H4 neuroglioma cells, luminescence, dose response (AID 1990); type: functional, cell-based
[13] = system: BJ; test: BJ-TERT-LT-ST fibroblast viability loss – cell-based, RAS-independent, luminescence, dose response (AID 1935); type: functional; settings: Homo sapiens;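 further: BJ fibroblasts immortalized with TERT plus LT and ST oncogenes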
[14] = system: Vero; test: cells; type: functional; settings: Chlorocebus sabaeus
[15] = target: T1, Protein RecA (Mycobacterium tuberculosis, UniProt P9WHJ3); test: Fluorescence Cell-Free Homogeneous Dose Retest to Identify Inhibitors of RecA-Intein Splicing Activity. [Related pubchem assays (depositor defined):AID2097, AID2223, AID489010, AID492950]; type: functional
T1 sequence (P9WHJ3 whole entry): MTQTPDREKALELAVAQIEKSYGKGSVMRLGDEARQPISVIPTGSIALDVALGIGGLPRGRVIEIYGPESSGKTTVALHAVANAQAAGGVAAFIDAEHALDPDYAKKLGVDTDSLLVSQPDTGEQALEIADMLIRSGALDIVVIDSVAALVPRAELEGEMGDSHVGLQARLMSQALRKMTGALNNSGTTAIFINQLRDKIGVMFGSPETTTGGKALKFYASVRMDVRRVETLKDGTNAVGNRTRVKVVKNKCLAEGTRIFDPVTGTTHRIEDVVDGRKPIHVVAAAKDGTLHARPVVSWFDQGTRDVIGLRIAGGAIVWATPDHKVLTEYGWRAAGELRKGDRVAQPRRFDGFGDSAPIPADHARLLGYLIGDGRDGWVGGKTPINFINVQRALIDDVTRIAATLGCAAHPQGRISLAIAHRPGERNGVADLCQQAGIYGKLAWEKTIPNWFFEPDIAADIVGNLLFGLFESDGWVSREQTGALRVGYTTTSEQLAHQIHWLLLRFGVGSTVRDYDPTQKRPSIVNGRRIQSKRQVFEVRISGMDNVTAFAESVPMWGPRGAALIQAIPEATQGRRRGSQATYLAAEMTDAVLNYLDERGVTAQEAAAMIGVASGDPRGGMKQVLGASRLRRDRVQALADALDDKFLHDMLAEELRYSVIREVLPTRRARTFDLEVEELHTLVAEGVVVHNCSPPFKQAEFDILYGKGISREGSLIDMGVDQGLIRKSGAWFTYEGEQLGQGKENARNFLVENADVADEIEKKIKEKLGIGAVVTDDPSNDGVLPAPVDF

[16] = target: Large T antigen (Simian virus 40, UniProt P03070); type: functional, Betapolyomavirus macacae;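 further: Confirmatory-stage PubChem screen for compounds that inhibit SV40 T antigen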
[17] = target: T2, Replicative DNA helicase DnaB (Mycobacterium tuberculosis, UniProt P9WMR3); test: DnaB intein splicing inhibitors, dose response, biochemical, cell-free fluorescence (AID 449749); type: functional
T2 sequence (P9WMR3 whole entry): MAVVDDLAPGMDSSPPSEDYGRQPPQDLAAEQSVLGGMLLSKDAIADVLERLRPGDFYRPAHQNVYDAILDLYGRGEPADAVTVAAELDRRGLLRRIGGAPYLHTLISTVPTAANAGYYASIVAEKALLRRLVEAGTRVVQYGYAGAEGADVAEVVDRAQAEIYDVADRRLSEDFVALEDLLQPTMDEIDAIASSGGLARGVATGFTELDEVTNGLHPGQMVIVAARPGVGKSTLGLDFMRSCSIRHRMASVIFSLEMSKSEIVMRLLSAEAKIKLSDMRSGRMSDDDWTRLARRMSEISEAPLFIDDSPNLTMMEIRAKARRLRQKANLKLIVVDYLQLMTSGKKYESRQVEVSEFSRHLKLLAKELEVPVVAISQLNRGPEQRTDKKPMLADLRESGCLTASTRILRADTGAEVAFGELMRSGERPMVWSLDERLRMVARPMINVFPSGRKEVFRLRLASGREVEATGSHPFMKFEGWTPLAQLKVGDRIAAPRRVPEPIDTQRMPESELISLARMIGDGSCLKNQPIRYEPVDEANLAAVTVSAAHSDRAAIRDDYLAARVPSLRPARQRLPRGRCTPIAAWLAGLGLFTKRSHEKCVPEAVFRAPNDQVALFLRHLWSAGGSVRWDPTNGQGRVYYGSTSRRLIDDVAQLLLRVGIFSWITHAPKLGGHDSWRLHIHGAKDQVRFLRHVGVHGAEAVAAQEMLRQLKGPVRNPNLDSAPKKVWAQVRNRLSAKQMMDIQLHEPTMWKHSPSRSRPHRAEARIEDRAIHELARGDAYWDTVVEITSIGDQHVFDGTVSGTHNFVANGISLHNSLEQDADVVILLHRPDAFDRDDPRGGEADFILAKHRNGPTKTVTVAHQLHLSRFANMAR

[18] = target: Dual specificity tyrosine-phosphorylation-regulated kinase 1A (Rattus norvegicus, UniProt Q63470); type: biochemical, Homo sapiens
[19] = target: T3, Endoribonuclease toxin MazF (Escherichia coli K-12, UniProt P0AE70); test: activation of MazEF endoribonuclease cleavage – biochemical, fluorescence, single-stranded RNA substrate, uHTS hits, dose response (AID 588481); type: functional
T3 sequence (P0AE70 whole entry): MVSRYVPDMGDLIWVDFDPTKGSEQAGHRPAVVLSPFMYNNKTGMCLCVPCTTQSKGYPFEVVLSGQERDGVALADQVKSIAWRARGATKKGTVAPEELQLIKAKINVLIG

[20] = target: T3, Endoribonuclease toxin MazF; test: substrate-only fluorescence increase artefacts – biochemical, single-stranded RNase substrate, counter-screen for MazEF activator project, dose response (AID 588502); type: functional

Chain of Peroxisome proliferator-activated receptor gamma/Nuclear receptor coactivator 2 (P37231 whole entry): as the sequence (P37231 whole entry) above
Chain of Peroxisome proliferator-activated receptor gamma/Nuclear receptor coactivator 2 (Q15596 whole entry, further chain): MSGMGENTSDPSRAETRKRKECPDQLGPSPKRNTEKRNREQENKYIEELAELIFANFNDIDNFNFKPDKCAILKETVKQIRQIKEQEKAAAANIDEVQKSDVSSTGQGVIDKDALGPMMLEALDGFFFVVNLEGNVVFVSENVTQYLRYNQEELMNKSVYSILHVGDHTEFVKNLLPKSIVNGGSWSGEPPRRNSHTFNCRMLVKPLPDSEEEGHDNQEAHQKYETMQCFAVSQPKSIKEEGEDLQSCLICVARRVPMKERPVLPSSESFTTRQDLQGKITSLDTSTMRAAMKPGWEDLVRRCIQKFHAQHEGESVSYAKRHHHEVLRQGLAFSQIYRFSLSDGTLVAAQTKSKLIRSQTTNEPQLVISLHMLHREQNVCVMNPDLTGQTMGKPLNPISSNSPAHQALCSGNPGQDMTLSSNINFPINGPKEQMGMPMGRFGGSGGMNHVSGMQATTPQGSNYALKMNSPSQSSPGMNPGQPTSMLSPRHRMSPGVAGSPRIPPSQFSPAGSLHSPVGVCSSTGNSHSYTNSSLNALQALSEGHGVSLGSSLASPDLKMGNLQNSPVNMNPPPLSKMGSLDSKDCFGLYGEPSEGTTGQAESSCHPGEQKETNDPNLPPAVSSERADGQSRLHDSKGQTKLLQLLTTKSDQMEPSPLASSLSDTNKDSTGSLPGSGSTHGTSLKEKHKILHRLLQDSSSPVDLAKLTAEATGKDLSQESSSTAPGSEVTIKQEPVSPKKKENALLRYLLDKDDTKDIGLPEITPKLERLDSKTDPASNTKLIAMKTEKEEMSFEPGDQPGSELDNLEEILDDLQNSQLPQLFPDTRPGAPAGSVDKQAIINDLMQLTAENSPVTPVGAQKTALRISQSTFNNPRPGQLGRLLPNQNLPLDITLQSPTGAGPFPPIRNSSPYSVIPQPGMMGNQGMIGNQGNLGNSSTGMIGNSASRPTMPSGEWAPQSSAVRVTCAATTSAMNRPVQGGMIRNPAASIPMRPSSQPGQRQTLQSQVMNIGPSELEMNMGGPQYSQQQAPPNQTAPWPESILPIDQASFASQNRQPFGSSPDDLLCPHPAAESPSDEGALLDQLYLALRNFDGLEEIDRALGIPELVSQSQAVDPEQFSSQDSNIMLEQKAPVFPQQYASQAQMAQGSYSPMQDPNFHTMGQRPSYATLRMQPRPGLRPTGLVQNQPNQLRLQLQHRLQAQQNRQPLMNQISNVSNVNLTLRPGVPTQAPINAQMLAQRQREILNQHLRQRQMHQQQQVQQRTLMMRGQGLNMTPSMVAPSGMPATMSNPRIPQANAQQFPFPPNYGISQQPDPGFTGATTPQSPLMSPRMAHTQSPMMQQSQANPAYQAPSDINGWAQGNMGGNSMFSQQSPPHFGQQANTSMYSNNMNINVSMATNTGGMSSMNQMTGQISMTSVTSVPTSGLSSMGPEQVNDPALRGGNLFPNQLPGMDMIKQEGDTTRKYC

| Compound | EC50 [1] | EC50 [3] | EC50 [9] | EC50 [11] | EC50 [13] | EC50 [19] | EC50 [20] | other results |
| --- | --- | --- | --- | --- | --- | --- | --- | --- |
| FC(F)(F)c1nnc2c(Sc3ccc(Cl)cc3)nc3ccccc3n12 | 25.2 µM (active) | 3.28 µM (inconclusive) | 9.34 µM (inconclusive) | 0.565 µM (active) | 5.54 µM (inconclusive) | – | – | EC50 [2]: 21.7 µM (not active); EC50 [4]: 9.77 µM (active); AC50 [5]: 1.27 µM (active); EC50 [6]: > 120 µM (not active); AC50 [7]: inconclusive; EC50 [8]: 32.3 µM (not active); EC50 [10]: 24.3 µM (not active); EC50 [12]: > 120 µM (not active) |
| COCCCNC1=NN=C(c2cc(C)n(Cc3ccco3)c2C)CS1 | – | – | – | 0.201 µM (active) | – | – | – | CC50 [14]: 2.27 µM (active) |
| COc1cc(C=C2C(=O)c3ccccc3C2=O)ccc1O | – | – | – | – | – | – | – | EC50 [15]: 22.9 µM (active); IC50 [16]: 15.1 µM (active); AC50 [17]: > 380 µM (inactive); AC50 [18]: 0.585 µM (active) |
| O=C(COC(=O)c1ccccc1C(=O)N1CCN(c2ccccc2)CC1)NCc1ccccc1 | – | – | – | – | – | > 99 µM (inactive) | > 99 µM (inactive) | – |
| C[C@@H]1C=CC(=O)O[C@@H]1c1ccc(C(F)(F)F)cc1 | 5.53 µM (active) | 49.6 µM (active) | 2.27 µM (active) | 0.409 µM (active) | 12.4 µM (active) | – | – | – |
| CC(=O)N1CC[C+]([N-]NS(=O)(=O)c2cccc([N+](=O)[O-])c2)CC1 | – | – | – | – | – | > 99 µM (inactive) | 23.9 µM (inactive) | – |
